For 3 molecules, IC50 results are on record in US4794122A, “Novel benzimidazolyl-thiomethyl-benzothiazoles” (Uclaf; Roussel, priority 1986, dated 1988).

The structures appear in SMILES notation.

The target of this experiment is T1, 5-lipoxygenase (Rattus norvegicus, UniProt P12527).
T1 construct: prelabelled rat peritoneal neutrophils; endogenous in cells; host or cells: rat peritoneal neutrophils
T1 sequence (P12527 1-673): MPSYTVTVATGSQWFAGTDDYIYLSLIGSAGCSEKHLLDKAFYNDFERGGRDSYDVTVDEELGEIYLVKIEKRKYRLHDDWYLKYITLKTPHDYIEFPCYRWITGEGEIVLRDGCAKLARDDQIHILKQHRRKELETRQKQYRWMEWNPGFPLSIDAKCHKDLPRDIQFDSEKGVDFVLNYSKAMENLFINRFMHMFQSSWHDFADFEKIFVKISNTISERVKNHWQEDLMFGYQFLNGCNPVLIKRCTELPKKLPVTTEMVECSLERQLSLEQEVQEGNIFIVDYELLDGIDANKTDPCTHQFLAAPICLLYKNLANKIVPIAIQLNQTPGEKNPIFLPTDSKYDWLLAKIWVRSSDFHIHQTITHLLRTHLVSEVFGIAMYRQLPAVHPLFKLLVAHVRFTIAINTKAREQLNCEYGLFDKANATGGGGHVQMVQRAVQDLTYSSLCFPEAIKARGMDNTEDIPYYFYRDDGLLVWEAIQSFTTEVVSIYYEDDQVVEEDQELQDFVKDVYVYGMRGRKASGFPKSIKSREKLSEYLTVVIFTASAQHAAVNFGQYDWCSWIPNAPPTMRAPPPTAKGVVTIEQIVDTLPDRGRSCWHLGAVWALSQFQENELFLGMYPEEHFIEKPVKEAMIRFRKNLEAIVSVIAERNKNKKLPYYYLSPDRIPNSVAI
In words: Inhibition of Ca++ ionophore (A23187)-induced release of 5-lipoxygenase products (leukotriene B4 and 5-HETE) from [14C]-arachidonic acid prelabelled rat peritoneal neutrophils. Particulars: A23187-induced release of leukotriene B4 and 5-HETE, determined graphically from dose response curves, read-out: micro molecular concentration of the compounds causing a 50% inhibition of the control response for 5-lipoxygenase. The format is cell-based. The procedure:
Inhibition of Ca^++ ionophore (A23187)-induced release of 5-lipoxygenase products (leukotriene B4 and 5-HETE) from [^14 C]-arachidonic acid prelabelled rat peritoneal neutrophils was determined by a modification of the method of Ahnfelt-Ronne et al [Biochemical Pharmacology, Vol. 31, (1982), No. 16, p. 2619-2624].
In the case of `c1ccc2[nH]c(SCc3nc4ccccc4s3)nc2c1` [Example 1, 2-(1H-benzimidazol-2-yl-thiomethyl)-benzothiazole], the IC50 came out at 3500 nM.
Turning to `Clc1ccc2[nH]c(SCc3nc4ccccc4s3)nc2c1` [Example 2, 2-(5-chloro-1H-benzimidazol-2-yl-thiomethyl)benzothiazole], the IC50 was 590 nM.
With `Clc1cc2nc(SCc3nc4ccccc4s3)[nH]c2cc1Cl` [Example 3, 2-(5,6-dichloro-1H-benzimidazol-2-yl-thiomethyl)benzothiazole], the IC50 was 230 nM.
